Like-named read-outs stand apart in the source and are kept apart here.
System: acetylcholine-induced abdominal constriction
Assay: prevention of acetylcholine-induced abdominal constriction in mice (analgesic activity)
Type: in vivo, mice (male CD1)
Conditions: for ED50: Mus musculus, po, 0.5 h; for analgesia: 30 min
Experimental: Male CD1 mice (weighing from 18-24 g) were utilized in determining the analgesic effects associated with the compositions of the invention. The mice were all dosed orally with tramadol hydrochloride (calculated as the base), which was completely dissolved in distilled water, and acetaminophen (calculated as the base), which was completely dissolved in distilled water or in distilled water containing 2% by volume of Tween 80 containing 100% polysorbate 80. The dosing volume was 10 mL/kg.
The procedure used in detecting and comparing the analgesic activity of different classes of analgesia drugs for which there is a good correlation with human efficacy is the prevention of acetylcholine-induced abdominal constriction in mice (H. Collier et al., Br. J. Pharmacol., 32, 295 (1968)).
Mice, intubated with various doses of tramadol hydrochloride alone, acetaminophen alone, combined doses of tramadol hydrochloride and acetaminophen, or vehicle such as distilled water, or distilled water containing 2% by volume of Tween 80, were injected intraperitoneally with a challenge dose of acetylcholine bromide. The acetylcholine was completely dissolved in distilled water at a concentration of […] and injected at the rate of 0.20 mL/20 g. For scoring purposes an “abdominal constriction” was defined as a contraction of the abdominal musculature accompanied by arching of the back and extension of the limbs. The mice were observed 10 minutes for the presence or absence of the abdominal constriction response beginning immediately after receiving the acetylcholine dose, which was 30 minutes after receiving the oral administration of tramadol hydrochloride, acetaminophen, combined doses of tramadol hydrochloride and acetaminophen, or vehicle. Each mouse was used only once.
The analysis of possible superadditivity for the compositions at each fixed ratio was determined as disclosed by R. J. Tallarida et al., Life Sci., 45, 947 (1989). This procedure involved the determination of the total amount in the mixture that is required to produce a specified level of effect, such as 50% (ED50mix), and the corresponding total amount that would be expected under simple additivity (ED50add). Where it was established that ED50mix<ED50add for a specific fixed-ratio, then that composition ratio was superadditive. Both the quantities ED50mix and ED50add were random variables; ED50mix was estimated from the dose-response curve for a specific fixed-ratio; ED50add was obtained by combining the ED50 estimates for the two drugs under additivity. ED50mix was then compared to ED50add via a Student's t-test.
The interaction between tramadol and acetaminophen was determined at precise dosage ratios of tramadol hydrochloride and acetaminophen. Multiple (typically 4-6) coded doses of each selected combination were studied for analgesic effectiveness after 30 minutes using an experimental design which permitted the complete randomization of the separate dosage forms tested.
In FIG. 1, the diagonal line joining the ED50 values of the two drugs given separately represents the simple additivity of effects at different component ratios. The dotted lines adjacent to the diagonal line define the 95% confidence interval. ED50 values falling under the curve (between the line and the origin) indicate superadditivity, i.e., unexpected enhancement of effects. The diagonal dashed lines radiating from the origin represent the dose ratios of APAP to tramadol hydrochloride used in mice receiving the combined drug dosages. The bars through the ED50 points for the tramadol and APAP composition represent the 95% confidence intervals of the ED50 value.

COc1cccc([C@@]2(O)CCCC[C@@H]2CN(C)C)c1 (racemic) [tramadol only, (1RS, 2RS)-[(dimethylamino)-methyl]-1-(3-methoxy-phenyl)cyclohexanol]
ED50 (read-out: ED50 30 min (95% CI's) Tramadol): 5.5 mg/kg
analgesia (dose Tramadol 2 + APAP 0 mg/kg, p.o.): 3/15
analgesia (dose Tramadol 3 + APAP 0 mg/kg, p.o.): 4/15
analgesia (dose Tramadol 4 + APAP 0 mg/kg, p.o.): 14/45
analgesia (dose Tramadol 6 + APAP 0 mg/kg, p.o.): 20/45
analgesia (dose Tramadol 8 + APAP 0 mg/kg, p.o.): 40/60
analgesia (dose Tramadol 10 + APAP 0 mg/kg, p.o.): 15/15
analgesia (dose Tramadol 16 + APAP 0 mg/kg, p.o.): 14/15

CC(=O)Nc1ccc(O)cc1 [APAP only, acetaminophen]
ED50 (APAP component of the ED50, p.o., 30 min after dosing, read-out: ED50 30 min (95% CI's) APAP): 164 mg/kg
analgesia (dose Tramadol 0 + APAP 30 mg/kg, p.o.): 2/15
analgesia (dose Tramadol 0 + APAP 40 mg/kg, p.o.): 12/43
analgesia (dose Tramadol 0 + APAP 50 mg/kg, p.o.): 1/15
analgesia (dose Tramadol 0 + APAP 60 mg/kg, p.o.): 8/30
analgesia (dose Tramadol 0 + APAP 80 mg/kg, p.o.): 23/60
analgesia (dose Tramadol 0 + APAP 100 mg/kg, p.o.): 13/30
analgesia (dose Tramadol 0 + APAP 120 mg/kg, p.o.): 13/30
analgesia (dose Tramadol 0 + APAP 160 mg/kg, p.o.): 10/30
analgesia (dose Tramadol 0 + APAP 200 mg/kg, p.o.): 13/25
analgesia (dose Tramadol 0 + APAP 240 mg/kg, p.o.): 14/25
analgesia (dose Tramadol 0 + APAP 400 mg/kg, p.o.): 12/15
analgesia (dose Tramadol 0 + APAP 800 mg/kg, p.o.): 13/15
